{"source": "ChEMBL document CHEMBL1126422", "about": "“The preparation of novel dopamine analogues via palladium catalysed cyclisation reactions” (Bioorg Med Chem Lett, 1992)", "target": "D(3) dopamine receptor (Rattus norvegicus, UniProt P19020)", "sequence (P19020 whole entry)": "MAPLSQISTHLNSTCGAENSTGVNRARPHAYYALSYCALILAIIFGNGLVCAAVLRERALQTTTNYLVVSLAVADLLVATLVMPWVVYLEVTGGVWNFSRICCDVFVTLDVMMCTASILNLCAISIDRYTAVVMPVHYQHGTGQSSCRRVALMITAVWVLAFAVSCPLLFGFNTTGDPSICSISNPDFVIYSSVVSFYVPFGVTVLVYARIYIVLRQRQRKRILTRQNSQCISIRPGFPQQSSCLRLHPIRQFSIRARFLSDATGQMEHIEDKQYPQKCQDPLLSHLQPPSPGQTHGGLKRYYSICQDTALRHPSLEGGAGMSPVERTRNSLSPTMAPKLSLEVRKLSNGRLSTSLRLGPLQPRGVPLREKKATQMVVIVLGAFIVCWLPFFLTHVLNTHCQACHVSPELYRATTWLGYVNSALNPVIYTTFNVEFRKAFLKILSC", "experiment": "Compound was tested for binding affinity at the rat Dopamine receptor D3 expressed in Chinese hamster ovary cells; No significant affinity.", "assay_type": "cell-based"}
{"smiles": "CCCN[C@H]1COc2ccccc2[C@@H]1C.Cl", "values": [{"measurement": "Log Ki", "value": "< -6.5"}]}
{"smiles": "C=C1c2ccccc2OC[C@@H]1NCCC.Cl", "values": [{"measurement": "Log Ki", "value": "> -6.5"}]}
